Reference: patent publication US7674612B2, “Infectious, chimeric hepatitis C virus, methods of producing the same and methods of use thereof” (The Rockefeller University, priority 2005, dated 2010)

B1: large extracellular loop of CD9: large extracellular loop of CD9, a related tetraspanin (control) (protein)
chain: SHKDEVIKEVQEFYKDTYNKLKTKDEPQRETLKAIHYALNCCGLAGGVEQFISDICPKKDVLETFTVKSCPDAIKEVFDNKFHI
B2: recombinant form of the large extracellular loop from CD81: recombinant large extracellular loop of CD81, which binds E2 and acts as a receptor for HCV (protein)
chain: FVNKDQIAKDVKQFYDQALQQAVVDDDANNAKAVVKTFHETLDCCGSSTLTALTTSVLKNNLCPSGSNIISNLFKEDCHQKIDDLFSGK

Tests used:
Format in all cases: cell-based, hepatitis C virus
[1] = tested on: HCVcc (FL-J6/JFH++); assay: Drug inhibition of HCVcc RNA replication in infected Huh-7.5 cells (Taqman); conditions: 48 hour post-infection; Huh-7.5 cells infected with FL-J6/JFH++; HCVcc RNA by Taqman
Procedure: Parallel cultures of Huh-7.5 cells were infected with FL-J6/JFH++ for 6 hours. Following removal of the inocula, cells were washed with PBS and fed with complete growth medium containing the indicated concentrations of antiviral drugs or a DMSO carrier control. RNAs were extracted after 2 days and the amount of accumulated HCVcc RNA quantitated by Taqman.
A panel of experimental HCV antiviral compounds were examined for their ability to inhibit RNA replication at 48 hour post-infection with HCVcc. One of these compounds, 2′-C-methyladenosine (Merck) is a nucleoside analog that inhibits the HCV RNA polymerase. Three other compounds (PI-1, Vertex; BILN2061, Boerhinger Ingelheim; and SCH6, Schering-Plough) target the serine protease activity of NS3 by competitive binding. […] For the polymerase inhibitor, the higher specific activity is likely due to the fact that we measured the accumulation of nascent RNAs post-infection, whereas replicon-based assays examine the decay of RNA after inhibiting established replication. The reduced activities of the protease inhibitors likely reflect reduced affinities of these drugs, developed to genotype 1 proteases, to bind to the JFH NS3 protein.

[2] = tested on: HCVcc; assay: Effect of culture additives on HCVcc production (TCID50 assay)
Procedure: The procedure for immunohistochemical staining for NS5A has been adapted to determine the infectious virus concentration within samples. In one system, virus-containing samples were subjected to serial 10-fold dilutions (typically, 10^−1 to 10^−6) in complete growth medium. Each dilution was then used to infect multiple wells of Huh-7.5 cells seeded in 96-well plates. Following 2 or 3 day incubation, the cells are fixed and subjected to immunohistochemical staining for NS5A expression, as above. The assay plate was then scored for the number of infected wells (i.e. at least one infected cell per well) for each dilution (FIG. 3) and the virus titer was then calculated as the 50% end-point tissue-culture infectious dose per ml (TCID50/ml) according to the statistical method of Reed and Muench (Am. J. Hyg. 27:493-497 (1938)). The sensitivity of this assay was determined by volume of the lowest dilution and the number of replicates tested, and was typically 15.8 TCID50s/ml.
It was of interest to ascertain culturing conditions that increase the titer of infectious HCVcc. A large number of cell culture conditions were tested for their effect on HCVcc production. These included the choice of cell culture media, amount and type of fetal calf serum, as well as the addition of various additive compounds. […] For example, the following titers were recorded: 3.10×10^6 TCID50 (25 mM N-acetylcysteine) vs. 1.06×10^6 TCID50 (5 mM N-acetylcysteine) vs. 2.65×10^5 TCID50 (no N-acetylcysteine). Thus, the use of this compound in HCV-containing cell cultures permits a significant increase in yield of infectious HCVcc. Conditions have also been established for serum-free propagation of Huh-7.5 cells and HCVcc infection and production. These conditions include, but are not limited to, Dulbecco's Modified Eagle's Medium (DMEM)/F12 medium containing 10 μg/ml transferrin, 2 μg/ml insulin, 7.6 μM free fatty acids, 0.3 μM selenium, 0.1 μM hydrocortisone, 0.20% bovine serum albumin, and 20 ng/ml epidermal growth factor.

[3] = tested on: HCVcc (FL-J6/JFH); assay: Blocking of HCVcc infection of naïve Huh-7.5 by soluble recombinant CD81 or CD9 (NS5A immunostaining); conditions: 10 μg/ml, 1 hour at 37° C., naïve Huh-7.5, day 3
Procedure: A) Independent samples of FL-J6/JFH++ (3.16×10^4 TCID50/ml) were mixed with the indicated amounts of recombinant human monoclonal antibodies (IgGl) against HCV E2 (open circles) or dengue-3 E proteins (filled triangle). Following a 1 hour incubation at 37° C., the virus titers of each sample were determined as described for FIG. 3. Shown are the average±s.d. of three independent samples. The amount of input virus is indicated by the dashed line. B) Samples of FL-J6/JFH were incubated for 1 hour at 37° C. with 10 μg/ml of soluble recombinant CD81 or CD9 and used to infect naïve Huh-7.5. Infections were monitored at day 3 by immunostaining as described in FIG. 2B. C). FL-J6/JFH was used to infect standard HepG2 cells or HepG2 cells engineered to express human CD81. Infections were monitored as described in FIG. 2B.
To further examine the role of E2 in HCVcc entry, virus was preincubated with a recombinant form of the large extracellular loop from CD81, which binds E2 and acts as a receptor for HCV. […] In addition, the role of CD81 in mediating HCVcc entry was examined by infecting HepG2 cells, which lack CD81 expression, or HepG2 cells that have been engineered to express human CD81.

Row | Molecule | ability to inhibit RNA replication post-infection with HCVcc [1] | HCVcc infection after preincubation of virus with recombinant protein [3] | other results
1 | C[C@@]1(O)[C@H](O)[C@@H](CO)O[C@H]1n1cnc2c(N)ncnc21 [2′-C-methyladenosine] | inhibited HCVcc replication |  | 
2 | CC(=O)N[C@@H](CS)C(=O)O [N-acetylcysteine] |  |  | HCVcc titer ([2]; 5 mM N-acetylcysteine in culture): 1.06×10^6 TCID50; HCVcc titer ([2]; 25 mM N-acetylcysteine in culture): 3.10×10^6 TCID50; levels of HCVcc as determined by TCID50 assay ([2]; additive in cell culture): consistently gave higher levels of HCVcc
3 | COc1ccc2c(O[C@@H]3C[C@H]4C(=O)N[C@]5(C(=O)O)C[C@H]5/C=C\CCCCC[C@H](NC(=O)OC5CCCC5)C(=O)N4C3)cc(-c3csc(NC(C)C)n3)nc2c1 [BILN2061] | inhibited HCVcc replication |  | 
4 | B1 |  | did not | 
5 | B2 |  | blocked HCVcc infection | 
